pIC50: −log10 of the molar value.
System: MAPK14 (sprague-dawley rat)
Assay: IL-1 beta-induced P38 Phosphorylation
Conditions: astrocyte

pIC50 | Structure (SMILES)
3.30 | CC(C)(C)/[N+]([O-])=C/c1ccccc1
3.30 | CC(=O)N[C@@H](CS)C(=O)O
